# Ends that are not written are not given here.
# What was measured:
# [1] = test system: lung cancer cell line H1975; assay: MTT assay, cell viability, lung cancer cell line H1975; type: cell-based; conditions: 48 hours
# H1975/OR = assay: MTT assay, cell viability, H1975/OR; type: cell-based; conditions: Osimertinib 2.5 µM alone, 68 hours, FIG. 1G
# Procedure: (§1) Specifically, cells were seeded at 2 × 10^3/100 µl per well on a 96-well plate, and after culturing for 24 hours, the compound according to the present invention was administered; 4 hours later, anticancer drugs were treated to each cancer cell. The treatment concentration and treatment time of the compound and anticancer drug are specifically described in the embodiment. After completing the treatment of the compound and anticancer drug, CellTiter-96® reagent (Promega Co., USA) was reacted at 5% CO2, 37°C after adding 10 µl per well. After 3 hours, absorbance was measured at 490 nm using a spectrophotometer (SPECTROstar^Nano, BMG).
# [2] = test system: H820 lung cancer cell line; assay: Heterotransplant lung cancer animal model (H820), tumor growth; type: in vivo; conditions: H820 nude mice; Osimertinib single administration, 2.5 mpk orally daily; FIG. 6A
# Procedure: The test substances were administered intravenously and orally 7 times at 2-day intervals.
# Nude mice transplanted with H820 lung cancer cell line, an animal model of lung cancer described in the "Experimental Materials and Methods," was treated 7 times at a two-day interval for 14 days with 3-PhPh-[…] at a dose of 10 mpk, and Osimertinib was orally administered daily at 2.5 mpk. Then, the growth of the tumor was compared.
# H1975 cell line = assay: Heterotransplant lung cancer resistance animal model (H1975), tumor growth after Osimertinib resistance; type: in vivo, Balb/C nude mice
# Procedure: H1975 cells were mixed with matrigel in a 1:1 ratio at a concentration of 5 × 10^6 cells/mouse, and each was subcutaneously inoculated at 200µl into the flank of the mouse once. After the inoculation, it was confirmed that the volume of the formed tumor reached 70~130 mm^3, and then random grouping was carried out. After the grouping, Osimertinib was administered orally every day, and after the growth of the tumor was inhibited, the point of re-growth was identified and the co-administration with the test substance was started. The test substances were administered intravenously 7 times at 2-day intervals.
# After inoculating the H1975 cell line in 4-week-old female Balb/C nude mice, the presence and growth of the tumor were observed and the short and long axes of the tumor were measured to calculate the volume. When the volume of the tumor reached 70-120 mm^3, the groups were randomly separated and PBS, the negative control group, and Osimertinib at 5 mpk were orally administered daily.
# The first day of administration was set as day 1, and the volume of the tumor was measured twice a week.
# [3] = test system: breast cancer cell line HCC1937; assay: MTT assay, cell viability, breast cancer cell line HCC1937; type: cell-based; conditions: Olaparib 2.5 µM alone, 24 hours, FIG. 4B
# [4] = test system: lung cancer cell line H1975; assay: MTT assay, cell viability, lung cancer cell line H1975; type: cell-based; conditions: Ac-AQTGTGKT 10 µM alone, 48 hours, FIG. 1C
# Procedure: as §1
compound,measurement,setting,value
C=CC(=O)Nc1cc(Nc2nccc(-c3cn(C)c4ccccc34)n2)c(OC)cc1N(C)CCN(C)C [Osimertinib],cell viability decreased compared to the control group,"[1]; Osimertinib 1 µM alone, FIG. 1B",about 5%
same,cell viability decreased compared to the control group,H1975/OR,about 7%
same,tumor growth reduced compared to the control group (PBS administered group),[2],46%
same,size of the tumor on the day of termination of administration (average),"H1975 cell line; H1975, after Osimertinib resistance, Osimertinib 5 mpk orally daily + PBS intravenously at a two-day interval, FIG. 6B",692.6 mm^3
same,tumor viability rate (tumor size on the 28th day versus the last measured tumor size),"H1975 cell line; H1975 Balb/C nude mice, Osimertinib 5 mpk orally daily, regrowth from the 24th day, judged as acquired resistance",over 50%
O=C(c1cc(Cc2n[nH]c(=O)c3ccccc23)ccc1F)N1CCN(C(=O)C2CC2)CC1 [Olaparib],decrease in cell viability compared to the control group,[3],no decrease in cell viability
"Nc1nc2[nH]cc(CCc3ccc(C(=O)N[C@@H](CCC(=O)O)C(=O)O)cc3)c2c(=O)[nH]1 [Alimta, Alimta (Pemetrexed)]",cell viability decreased compared to the control group,"[1]; Alimta 0.2 µM alone, FIG. 1E",about 6%
Ac-AQTGTGKT,cell viability decreased compared to the control group,[4],about 14%

# — patent EP4335452A1, “PHARMACEUTICAL COMPOSITION FOR ENHANCING ANTICANCER EFFECT OF ANTICANCER DRUG” (L-Base Co., Ltd., priority 2021, dated 2024)
